# Reference: PMC7254866 (ACS chemical biology, 2019)
# Columns and labels:
# Rh2GUS = Rh2GUS (Roseburia hominis, UniProt A0A395V8I7); test: Inhibition of Rh2GUS; format: biochemical
# [1] = tested on: FpL2-6, H11G11, Rg3, and Rh2 GUS enzymes; test: Catalytic efficiency across the four regorafenib-glucuronide processing enzymes; format: biochemical; settings: 4-MUG versus regorafenib-glucuronide
# G380M variant of FpL2-6 = test: Regorafenib-glucuronide processing by G380M variant of FpL2-6; format: biochemical, Faecalibacterium prausnitzii
# [2] = tested on: cecum and cecal contents of germ-free mice; test: Regorafenib-glucuronide conversion in ceca of germ-free mice; format: in vitro ADME, germ-free C57BL/6J mice; settings: cecum and cecal contents of 5 GF mice, 48 h incubation
# [3] = tested on: gut microbial GUS enzymes in mouse fecal samples; format: in vitro ADME, mice (C57BL/6 and BALB/c)
# [4] = tested on: intestinal homogenate lysates (cecum, small intestine, large intestine); test: Regorafenib-glucuronide conversion in intestinal homogenates of SPF mice; format: in vitro ADME, C57BL/6J mice
# [5] = tested on: gut microbial GUS enzymes in human feces; format: in vitro ADME
# (UniProt D5GU71) = test: Inhibition of H11G11 GUS; format: biochemical, uncultured taxon
# Sequence of (UniProt D5GU71) (D5GU71 1-754): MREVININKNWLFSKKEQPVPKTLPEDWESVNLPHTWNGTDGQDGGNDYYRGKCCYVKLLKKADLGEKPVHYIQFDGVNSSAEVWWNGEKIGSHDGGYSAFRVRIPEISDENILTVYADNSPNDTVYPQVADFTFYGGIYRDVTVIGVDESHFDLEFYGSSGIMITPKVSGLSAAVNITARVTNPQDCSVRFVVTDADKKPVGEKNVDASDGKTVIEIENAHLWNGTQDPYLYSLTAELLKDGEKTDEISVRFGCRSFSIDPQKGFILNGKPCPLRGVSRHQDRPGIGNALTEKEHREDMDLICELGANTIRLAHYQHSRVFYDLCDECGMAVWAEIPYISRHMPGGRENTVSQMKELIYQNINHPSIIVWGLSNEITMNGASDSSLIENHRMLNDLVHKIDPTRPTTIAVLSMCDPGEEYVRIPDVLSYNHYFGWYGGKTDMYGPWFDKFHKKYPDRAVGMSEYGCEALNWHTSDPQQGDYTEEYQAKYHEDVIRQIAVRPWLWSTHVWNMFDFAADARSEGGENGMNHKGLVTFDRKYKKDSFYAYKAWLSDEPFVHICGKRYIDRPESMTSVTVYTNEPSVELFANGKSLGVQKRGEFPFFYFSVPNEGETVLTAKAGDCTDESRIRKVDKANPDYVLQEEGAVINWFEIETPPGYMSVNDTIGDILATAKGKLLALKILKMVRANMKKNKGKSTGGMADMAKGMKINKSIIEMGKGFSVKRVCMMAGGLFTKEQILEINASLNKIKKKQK
# FpL2-6 = FpL2-6 (Faecalibacterium prausnitzii, UniProt D4K3H3); test: Inhibition of FpL2-6 GUS; format: biochemical
compound,measurement,setting,value
Cc1c(-c2ccc(O)cc2)n(Cc2ccc(OCCN3CCCCCC3)cc2)c2ccc(O)cc12 [bazedoxifene],potency (in words),Rh2GUS; toward Rh2GUS,low micromolar
"Cc1cc(=O)oc2cc(O[C@@H]3O[C@H](C(=O)O)[C@@H](O)[C@H](O)[C@H]3O)ccc12 [4-MUG, 4-methylumbelliferyl glucuronide]",rate relative to rates with regorafenib-glucuronide,[1],10–100 times faster
regorafenib-glucuronide,increase in catalytic efficiency,G380M variant of FpL2-6; G380M variant versus FpL2-6 wild type,40 fold
same,catalytic efficiency,"G380M variant of FpL2-6; substrate regorafenib-glucuronide, G380M variant of FpL2-6",4560 s⁻¹ M⁻¹
same,reactivation of regorafenib from regorafenib-glucuronide,[2],neither the cecum nor its contents were able to catalyze the reactivation
same,conversion of regorafenib-glucuronide to regorafenib,[3],no conversion
same,regorafenib-glucuronide converted to regorafenib,"[4]; cecal extracts of SPF mice, 48 h",almost all
same,conversion of regorafenib-glucuronide to regorafenib,"[4]; small and large intestine homogenates, after 48 h",relatively little conversion
same,regorafenib-glucuronide reactivation,[5],no regorafenib-glucuronide reactivation
O=C(c1ccc(OCCN2CCCCC2)cc1)c1c(-c2ccc(O)cc2)sc2cc(O)ccc12 [raloxifene],IC50,(UniProt D5GU71),100 ± 5 µM
same,IC50,FpL2-6,78 ± 9 µM
same,IC50,Rh2GUS,13 ± 3 µM
